Where “and” joins values, the source holds several entries; their conditions need not be identical. Equal entries are not always repeated. Inconclusive results and toxic doses are left out. Numbered stars: 1 amine (or outer) side, 2 acyl side, 3 side chain; on linkers, the order of the positions; unused ones are H or OH. Bridge positions count the residues as written; N and C are the ends. Square brackets hold non-standard residues; d marks the D form. Peptide text beside a SMILES is read from it. I, II: the chains in the order shown. Actinocin(9to1) = Cc1c2oc3c(C)ccc(C(=O)[*:1])c3nc-2c(C(=O)[*:2])c(N)c1=O; X2 = O=C(C1CC(Cl)CN1[*:1])[*:2]; NMeV = CN[CH](C(=O)O)C(C)C; Sar = CNCC(=O)O
Tested on: BDF1 mice, B16 melanoma ip, median survival T/C
Test: NCI In Vivo Anticancer Drug Screen. Data for tumor model B16 Melanoma (intraperitoneal) in B6D2F1 (BDF1) mice
Details: endpoint: median survival time, higher = longer survival
Summary of the method: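 Survival or tumor size is measured after treatment of tumor-bearing mice and normalised to the vehicle-treated control group.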

[1] = dose: 12.5 mg/kg/injection, schedule: Q01DX009 (ip), vehicle: Klucel (hydroxypropylcellulose) (HPC)
[2] = dose: 25.0 mg/kg/injection, schedule: Q01DX009 (ip), vehicle: Klucel (hydroxypropylcellulose) (HPC)
[3] = dose: 50.0 mg/kg/injection, schedule: Q01DX009 (ip), vehicle: Klucel (hydroxypropylcellulose) (HPC)
[4] = dose: 100.0 mg/kg/injection, schedule: Q01DX009 (ip), vehicle: Klucel (hydroxypropylcellulose) (HPC)
[5] = dose: 12.5 mg/kg/injection, schedule: Q01DX009 (ip), vehicle: saline with Tween-80
[6] = dose: 25.0 mg/kg/injection, schedule: Q01DX009 (ip), vehicle: saline with Tween-80
[7] = dose: 12.5 mg/kg/injection, schedule: Q01DX009 (ip), vehicle: saline
[8] = dose: 200.0 mg/kg/injection, schedule: Q01DX009 (ip), vehicle: saline with Tween-80
[9] = dose: 50.0 mg/kg/injection, schedule: Q01DX009 (ip), vehicle: saline with Tween-80
[10] = dose: 100.0 mg/kg/injection, schedule: Q01DX009 (ip), vehicle: saline with Tween-80
[11] = dose: 3.12 mg/kg/injection, schedule: Q01DX009 (ip), vehicle: saline
[12] = dose: 6.25 mg/kg/injection, schedule: Q01DX009 (ip), vehicle: saline

Structure (SMILES): O=[N+]([O-])c1cccc(P(=O)(c2cccc([N+](=O)[O-])c2)c2cccc([N+](=O)[O-])c2)c1
- T/C (dose: 100.0 mg/kg/injection, schedule: Q01DX009 (ip), vehicle: saline): 105 % of control
- T/C (dose: 100.0 mg/kg/injection, schedule: Q04DX003 (ip), vehicle: saline): 94 % of control
- T/C (dose: 200.0 mg/kg/injection, schedule: Q01DX009 (ip), vehicle: saline): 100 % of control
- T/C (dose: 200.0 mg/kg/injection, schedule: Q04DX003 (ip), vehicle: saline): 100 % of control
- T/C (dose: 400.0 mg/kg/injection, schedule: Q01DX009 (ip), vehicle: saline): 107 % of control
- T/C (dose: 400.0 mg/kg/injection, schedule: Q04DX003 (ip), vehicle: saline): 100 % of control

Structure (SMILES): O=C(CCCN1CC=C(n2c(=O)[nH]c3ccccc32)CC1)c1ccc(F)cc1
- T/C (dose: 3.12 mg/kg/injection, schedule: Q01DX009 (ip), vehicle: Klucel (hydroxypropylcellulose) (HPC)): 92 % of control
- T/C (dose: 6.25 mg/kg/injection, schedule: Q01DX009 (ip), vehicle: Klucel (hydroxypropylcellulose) (HPC)): 92 % of control and 95 % of control
- T/C [1]: 98 % of control
- T/C [2]: 90 % of control and 95 % of control
- T/C [3]: 97 % of control
- T/C [4]: 93 % of control
- T/C (dose: 200.0 mg/kg/injection, schedule: Q01DX009 (ip), vehicle: Klucel (hydroxypropylcellulose) (HPC)): 95 % of control

Structure (SMILES): CCCCCCCCCC(=O)N(C)OC
- T/C (dose: 12.5 mg/kg/injection, schedule: Q04DX003 (ip), vehicle: saline with Tween-80): 100 % of control
- T/C (dose: 25.0 mg/kg/injection, schedule: Q04DX003 (ip), vehicle: saline with Tween-80): 104 % of control
- T/C (dose: 50.0 mg/kg/injection, schedule: Q04DX003 (ip), vehicle: saline with Tween-80): 100 % of control

Structure (SMILES): COC(=O)c1cc2cc3c(c(O)c2c(=O)o1)OC1(Cc2c(O)c4c(c(O)c2O1)C(=O)C(OC)CC4=O)CC3O (stereo unspecified)
- T/C (dose: 3.13 mg/kg/injection, schedule: Q01DX009 (ip), vehicle: saline with Tween-80): 91 % of control
- T/C (dose: 6.25 mg/kg/injection, schedule: Q01DX009 (ip), vehicle: saline with Tween-80): 91 % of control and 93 % of control
- T/C [5]: 86 % of control
- T/C [6]: 86 % of control and 88 % of control

Structure (SMILES): CC(=O)Oc1ccc(/C=N/NC(N)=S)nc1
- T/C (dose: 9.4 mg/kg/injection, schedule: Q01DX009 (ip), vehicle: saline with Tween-80): 96 % of control
- T/C (dose: 18.8 mg/kg/injection, schedule: Q01DX009 (ip), vehicle: saline with Tween-80): 106 % of control
- T/C (dose: 37.5 mg/kg/injection, schedule: Q01DX009 (ip), vehicle: saline with Tween-80): 108 % of control
- T/C (dose: 75.0 mg/kg/injection, schedule: Q01DX009 (ip), vehicle: saline with Tween-80): 112 % of control
- T/C (dose: 150.0 mg/kg/injection, schedule: Q01DX009 (ip), vehicle: saline with Tween-80): 108 % of control

Structure (SMILES): CCCCCOC(CN)C(Cl)(Cl)Cl (stereo unspecified)
- T/C [7]: 93 % of control
- T/C (dose: 25.0 mg/kg/injection, schedule: Q01DX009 (ip), vehicle: saline): 100 % of control
- T/C (dose: 50.0 mg/kg/injection, schedule: Q01DX009 (ip), vehicle: saline): 102 % of control

Structure (SMILES): CC1(O)Nc2nc3c(ncn3C3OC(CO)C(O)C3O)c(=O)n2C1O (stereo unspecified)
- T/C (dose: 12.5 mg/kg/injection, schedule: Q01DX009 (ip), vehicle: water): 96 % of control
- T/C (dose: 25.0 mg/kg/injection, schedule: Q01DX009 (ip), vehicle: water): 103 % of control
- T/C (dose: 50.0 mg/kg/injection, schedule: Q01DX009 (ip), vehicle: water): 101 % of control
- T/C (dose: 100.0 mg/kg/injection, schedule: Q01DX009 (ip), vehicle: water): 100 % of control
- T/C (dose: 200.0 mg/kg/injection, schedule: Q01DX009 (ip), vehicle: water): 97 % of control
- T/C (dose: 400.0 mg/kg/injection, schedule: Q01DX009 (ip), vehicle: water): 95 % of control

Structure (SMILES): CCC(=O)N(C)[C@@H](C)C(=O)O[C@H]1CC(=O)N(C)c2cc(cc(OC)c2Cl)C/C(C)=C/C=C[C@@H](OC)[C@@]2(O)C[C@H](OC(=O)N2)[C@@H](C)[C@@H]2O[C@@]12C
- T/C (dose: 2.5 micrograms/kg/injection, schedule: Q01DX009 (ip), vehicle: saline + alcohol): 156 % of control
- T/C (dose: 3.8 micrograms/kg/injection, schedule: Q01DX009 (ip), vehicle: saline + alcohol): 171 % of control
- T/C (dose: 5.0 micrograms/kg/injection, schedule: Q01DX009 (ip), vehicle: saline + alcohol): 167 % of control and 171 % of control
- T/C (dose: 7.5 micrograms/kg/injection, schedule: Q01DX009 (ip), vehicle: saline + alcohol): 191 % of control
- T/C (dose: 10.0 micrograms/kg/injection, schedule: Q01DX009 (ip), vehicle: saline + alcohol): 168 % of control and 181 % of control
- T/C (dose: 15.0 micrograms/kg/injection, schedule: Q01DX009 (ip), vehicle: saline + alcohol): 151 % of control and 196 % of control
- T/C (dose: 30.0 micrograms/kg/injection, schedule: Q01DX009 (ip), vehicle: saline + alcohol): 103 % of control

Structure (SMILES): CCc1occ(C(=O)OC)c1C(=O)OC
- T/C (dose: 100.0 mg/kg/injection, schedule: Q04DX003 (ip), vehicle: saline with Tween-80): 102 % of control
- T/C (dose: 200.0 mg/kg/injection, schedule: Q04DX003 (ip), vehicle: saline with Tween-80): 97 % of control
- T/C (dose: 400.0 mg/kg/injection, schedule: Q04DX003 (ip), vehicle: saline with Tween-80): 95 % of control

Structure (SMILES): CC(C)(C)C1CCCCC1
- T/C [1]: 96 % of control
- T/C [2]: 105 % of control
- T/C [3]: 95 % of control
- T/C [4]: 88 % of control

Structure (SMILES): Nc1nc(Br)c2ccccc2c1-c1ccc([N+](=O)[O-])cc1
- T/C [8]: 91 % of control

Structure (SMILES): COc1cc(C2C(C(=O)OC/C=C/c3ccc4c(c3)OCO4)C(c3cc(OC)c(OC)c(OC)c3)C2C(=O)OC/C=C/c2ccc3c(c2)OCO3)cc(OC)c1OC (stereo unspecified)
- T/C [9]: 98 % of control
- T/C [10]: 92 % of control
- T/C [8]: 88 % of control
- T/C (dose: 400.0 mg/kg/injection, schedule: Q01DX009 (ip), vehicle: saline with Tween-80): 91 % of control

Structure (SMILES): O=[N+]([O-])c1ccc(Oc2cc(Cl)c(Cl)cc2Cl)c([N+](=O)[O-])c1
- T/C [2]: 107 % of control
- T/C [3]: 106 % of control
- T/C [4]: 99 % of control

Structure (SMILES): Cc1c2oc3c(C)ccc(C(=O)NC4C(=O)NC(C(C)C)C(=O)N5CC(Cl)CC5C(=O)N(C)CC(=O)N(C)C(C(C)C)C(=O)OC4C)c3nc-2c(C(=O)NC2C(=O)NC(C(C)C)C(=O)N3CC(Cl)CC3C(=O)N(C)CC(=O)N(C)C(C(C)C)C(=O)OC2C)c(N)c1=O (stereo unspecified) (I: TV[X2][Sar][NMeV] / II: TV[X2][Sar][NMeV]; ester I:1-I:C, II:1-II:C; linker I:N-II:N via Actinocin(9to1); configuration not given here)
- T/C (dose: 1080.0 micrograms/kg/injection, schedule: Q04DX003 (ip), vehicle: saline + alcohol): 159 % of control
- T/C (dose: 1800.0 micrograms/kg/injection, schedule: Q04DX003 (ip), vehicle: saline + alcohol): 160 % of control

Structure (SMILES): CCOCCN1CCN(CCCN2c3ccccc3Sc3ccc(C(F)(F)F)cc32)CC1
- T/C (dose: 0.09 mg/kg/injection, schedule: Q01DX009 (ip), vehicle: water): 105 % of control
- T/C (dose: 0.19 mg/kg/injection, schedule: Q01DX009 (ip), vehicle: water): 113 % of control
- T/C (dose: 0.39 mg/kg/injection, schedule: Q01DX009 (ip), vehicle: water): 100 % of control

Structure (SMILES): C=C1CCN(c2ccc(Br)cc2)C1=O
- T/C (dose: 4.0 mg/kg/injection, schedule: Q01DX009 (ip), vehicle: saline + alcohol): 95 % of control
- T/C (dose: 8.0 mg/kg/injection, schedule: Q01DX009 (ip), vehicle: saline + alcohol): 101 % of control
- T/C (dose: 16.0 mg/kg/injection, schedule: Q01DX009 (ip), vehicle: saline + alcohol): 109 % of control
- T/C (dose: 32.0 mg/kg/injection, schedule: Q01DX009 (ip), vehicle: saline + alcohol): 95 % of control
- T/C (dose: 64.0 mg/kg/injection, schedule: Q01DX009 (ip), vehicle: saline + alcohol): 101 % of control

Structure (SMILES): O=NNc1ccccn1
- T/C [11]: 116 % of control
- T/C [12]: 119 % of control
- T/C [7]: 156 % of control and 165 % of control

Structure (SMILES): Cc1ccccc1NC(=S)N(C)C
- T/C (dose: 6.25 mg/kg/injection, schedule: Q04DX003 (ip), vehicle: Klucel (hydroxypropylcellulose) (HPC)): 96 % of control
- T/C (dose: 12.5 mg/kg/injection, schedule: Q04DX003 (ip), vehicle: Klucel (hydroxypropylcellulose) (HPC)): 100 % of control
- T/C (dose: 25.0 mg/kg/injection, schedule: Q04DX003 (ip), vehicle: Klucel (hydroxypropylcellulose) (HPC)): 88 % of control and 100 % of control

Structure (SMILES): CC(CN1CCN(C)CC1)CN1c2ccccc2Sc2ccc(C(F)(F)F)cc21 (stereo unspecified)
- T/C (dose: 1.56 mg/kg/injection, schedule: Q01DX009 (ip), vehicle: saline): 110 % of control
- T/C [11]: 110 % of control
- T/C [12]: 123 % of control
- T/C [7]: 107 % of control

Structure (SMILES): O=C(Nc1nncs1)c1ccncc1
- T/C [5]: 100 % of control
- T/C [6]: 101 % of control
- T/C [9]: 109 % of control
- T/C [10]: 113 % of control
- T/C [8]: 109 % of control

From PubChem BioAssay AID192 (DTP/NCI, 2004)
